Converted amounts (≈) assume the structure as drawn. Counter-ions that a name gives are not always drawn.
Assays:
[1] = system: E. coli RNase P RNA, M1 RNA; assay: Inhibition of bacterial RNase P activity, IC50 determination (cleavage of pATSerUG by M1 RNA); format: biochemical; settings: NI: No inhibition
[2] = system: Escherichia coli (ATCC25922); assay: MIC, broth microdilution (CLSI), Escherichia coli; settings: Escherichia coli, ATCC25922, read-out: E. coli ATCC 25922 MIC, Table XIII
[3] = system: Staphylococcus aureus (ATCC25923); assay: MIC, broth microdilution (CLSI), Staphylococcus aureus ATCC25923; settings: Staphylococcus aureus, ATCC25923, read-out: S. aureus ATCC 25923 MIC

| Structure (SMILES) | IC50 [1] [µM] | MIC [2] [µg/mL] | MIC [3] [µg/mL] | IC50 ([1]; hydrochloride salt) [µM] |
| --- | --- | --- | --- | --- |
| Cc1cccc(C(CC(=O)N[C@H]2CC[C@@H](N)CC2)c2cn(CC3CCCCC3)c3ccccc23)c1.Cl (some centres unmarked) [Compound 114, N-((1s,4s)-4-aminocyclohexyl)-3-(1-(cyclohexylmethyl)-1H-indol-3-yl)-3-(m-tolyl)propanamide hydrochloride salt] | 14 | 64 | 8 | – |
| COc1cccc(C(CC(=O)NC2CCC(N)CC2)c2cn(CC3CCCCC3)c3ccccc23)c1.Cl [Compound 160, N-((1S,4S)-4-aminocyclohexyl)-3-(1-(cyclohexylmethyl)-1H-indol-3-yl)-3-(3-methoxyphenyl) propanamide hydrochloride salt] | 12 | 67 | 17 | – |
| Cc1cccc(C(CC(=O)NC2CCC(N)CC2)c2cn(CC3CCCCC3)c3ccc(-c4ccccc4Cl)cc23)c1.Cl [Compound 224, N-((1S,4S)-4-aminocyclohexyl)-3-(5-(2-chlorophenyl)-1-(cyclohexylmethyl)-1H-indol-3-yl)-3-(m-tolyl)propanamide hydrochloride salt] | 2.9 | 82 | 5 | – |
| Cc1cccc(C(CC(=O)NC2CCNCC2)c2cn(Cc3ccccc3)c3cnccc23)c1 (centres unmarked) [Compound 90, 3-(1-benzyl-1H-pyrrolo[2,3-c]pyridin-3-yl)-N-(piperidin-4-yl)-3-(m-tolyl)propanamide hydrochloride salt] | 950 | – | – | – |
| Cc1cccc(C(CC(=O)N[C@H]2CC[C@H](CN)CC2)c2cn(CC3CCCCC3)c3ccc(Br)cc23)c1.Cl (stereo partly drawn) [Compound 206, N-((1R,4R)-4-(aminomethyl)cyclohexyl)-3-(5-bromo-1-(cyclohexylmethyl)-1H-indol-3-yl)-3-(m-tolyl)propanamide hydrochloride salt] | 23 | > 512 | 19 | – |
| Cc1cccc(C(CC(=O)NC2CCC(N)CC2)c2cn(CC3CCNCC3)c3ccccc23)c1 [Compound 159, N-((1S,4S)-4-aminocyclohexyl)-3-(1-(piperidin-4-ylmethyl)-1H-indol-3-yl)-3-(m-tolyl)propanamide hydrochloride salt] | 210 | > 512 | 279 | – |
| Cc1cccc(C(CC(=O)NC2CCNCC2)c2cn(CC3CCCCC3)c3cccnc23)c1 (centres unmarked) [Compound 98, 3-(1-(cyclohexylmethyl)-1H-pyrrolo[3,2-b]pyridin-3-yl)-N-(piperidin-4-yl)-3-(m-tolyl)propanamide hydrochloride salt] | 269 | – | – | – |
| CCOP(=O)(NCCC1CCN(C(=O)CC(c2cccc(C)c2)c2cn(CC3CCCCC3)c3ccccc23)CC1)OCC (centres unmarked) [Compound 227, diethyl (2-(1-(3-(1-(cyclohexylmethyl)-1H-indol-3-yl)-3-(m-tolyl)propanoyl)piperidin-4-yl)ethyl)phosphoramidate] | – | > 512 | 318 (≈ 511 µM) | – |
| O=C(CC(c1cscn1)c1cn(Cc2ccccc2)c2ccccc12)NCCC1CCNCC1 (centres unmarked) [Compound 76, 3-(1-benzyl-1H-indol-3-yl)-N-(2-(piperidin-4-yl)ethyl)-3-(thiazol-4-yl) propanamide hydrochloride salt] | – | – | – | 197 |
| O=C(CC(c1cn(Cc2ccccc2)c2ccccc12)C1CCNCC1)NCCC1CCNCC1 (centres unmarked) [Compound 77, 3-(1-benzyl-1H-indol-3-yl)-3-(piperidin-4-yl)-N-(2-(piperidin-4-yl)ethyl)propanamide hydrochloride salt] | 140 | – | – | – |
| Cc1cccc(C(CC(=O)Nc2ccc(N3CCCCC3)cc2)c2cn(CC3CCCCC3)c3ccccc23)c1.Cl (centres unmarked) [Compound 158, 3-(1-(cyclohexylmethyl)-1H-indol-3-yl)-N-(4-(piperidin-1-yl)phenyl)-3-(m-tolyl)propanamide hydrochloride salt] | – | > 512 | > 512 | – |
| Cc1cccc(C(CC(=O)NCCC2CCNCC2)c2cn(Cc3ccccc3)c3ncncc23)c1 (centres unmarked) [Compound 94, 3-(7-benzyl-7H-pyrrolo[2,3-d]pyrimidin-5-yl)-N-(2-(piperidin-4-yl)ethyl)-3-(m-tolyl)propanamide hydrochloride salt] | 912 | – | – | – |
| COc1ccccc1-c1ccc2c(c1)c(C(CC(=O)N[C@H]1CC[C@H](N)CC1)c1cccc(C)c1)cn2CC1CCCCC1.Cl (some centres unmarked) [Compound 219, hydrochloride salt] | 7 | – | – | – |
| Cl.N[C@H]1CC[C@H](NC(=O)CC(c2ccccc2)c2cn(CC3CCCCC3)c3ccccc23)CC1 (stereo partly drawn) [Compound 130, N-((1R,4R)-4-aminocyclohexyl)-3-(1-(cyclohexylmethyl)-1H-indol-3-yl)-3-phenylpropanamide hydrochloride salt] | – | 64 | 64 | – |
| Cc1cccc(C(CC(=O)N[C@H]2CC[C@H](O)CC2)c2cn(CC3CCCCC3)c3ccccc23)c1 (stereo partly drawn) [Compound 210, 3-(1-(cyclohexylmethyl)-1H-indol-3-yl)-N-((1R,4R)-4-hydroxycyclohexyl)-3-(m-tolyl)propanamide] | – | > 512 | > 512 | – |
| COc1ccccc1-c1ccc2c(c1)c(C(CC(=O)N[C@H]1CC[C@H](N)CC1)c1cccc(C)c1)cn2CC1CCCCC1.Cl (some centres unmarked) [Compound 219] | – | > 512 | 10 | – |

| Structure (SMILES) | IC50 [1] [µM] | MIC [2] [µg/mL] | MIC [3] [µg/mL] | IC50 ([1]; hydrochloride salt) [µM] |
| --- | --- | --- | --- | --- |
| O=C(CCc1cn(Cc2ccccc2)c2ccccc12)NCCC1CCNCC1 [Compound 88, 3-(1-benzyl-1H-indol-3-yl)-N-(2-(piperidin-4-yl)ethyl)propanamide hydrochloride salt] | 842 | – | – | – |
| O=C(CC(c1cccnc1)c1cn(Cc2ccccc2)c2ccccc12)NCCC1CCNCC1 (centres unmarked) [Compound 93, 3-(1-benzyl-1H-indol-3-yl)-N-(2-(piperidin-4-yl)ethyl)-3-(pyridin-3-yl) propanamide hydrochloride salt] | 308 | – | – | – |
| CCn1cc(C(CC(=O)NC2CCNCC2)c2cccc(C)c2)c2ccccc21 (centres unmarked) [Compound 91, 3-(1-ethyl-1H-indol-3-yl)-N-(piperidin-4-yl)-3-(m-tolyl)propanamide hydrochloride salt] | 1080 | – | – | – |
| Cc1cccc(C(CC(=O)NCCN2CCCC2)c2cn(Cc3ccccc3)c3ccccc23)c1.Cl (centres unmarked) [Compound 3, 3-(1-benzyl-1H-indol-3-yl)-N-(2-(pyrrolidin-1-yl)ethyl)-3-(m-tolyl)propanamide hydrochloride salt] | – | > 512 | 32 | – |
| N[C@H]1CC[C@@H](NC(=O)CC(c2cccnc2)c2cn(Cc3ccccc3)c3ccccc23)CC1 (some centres unmarked) [Compound 75, N-((1s,4s)-4-aminocyclohexyl)-3-(1-benzyl-1H-indol-3-yl)-3-(pyridin-3-yl)propanamide hydrochloride salt] | 343 | – | – | – |
| O=C(CCc1cn(Cc2ccccc2)c2ccccc12)NC1CCNCC1 [Compound 102, 3-(1-benzyl-1H-indol-3-yl)-N-(piperidin-4-yl)propanamide hydrochloride salt] | 950 | – | – | – |
| Cc1cccc(C(CC(=O)NCC2CCNCC2)c2cn(Cc3ccccc3)c3ccccc23)c1 (centres unmarked) [Compound 79, 3-(1-benzyl-1H-indol-3-yl)-N-(piperidin-4-ylmethyl)-3-(m-tolyl)propanamide hydrochloride salt] | 129 | – | – | – |
| Cl.Nc1ccc(NC(=O)CCc2cn(CC3CCCCC3)c3ccc(Br)cc23)cn1 [Compound 298, N-(6-aminopyridin-3-yl)-3-(5-bromo-1-(cyclohexylmethyl)-1H-indol-3-yl)propanamide hydrochloride salt] | – | > 512 | 15 | – |
| O=C(CC(c1cscn1)c1cn(Cc2ccccc2)c2ccccc12)NCCC1CCNCC1 (centres unmarked) [Compound 95, 3-(1-benzyl-1H-indol-3-yl)-N-(2-(piperidin-4-yl)ethyl)-3-(thiazol-4-yl) propanamide hydrochloride salt] | – | – | – | 1300 |
| Cc1cccc(C(CC(=O)N[C@H]2CC[C@@H](N)CC2)c2cn(Cc3ccccc3)c3ccccc23)c1 (stereo partly drawn) [Compound 54, N-((1S,4S)-4-aminocyclohexyl)-3-(1-benzyl-1H-indol-3-yl)-3-(m-tolyl)propanamide hydrochloride salt] | 100 | – | – | – |
| Cl.Cl.N[C@H]1CC[C@H](NCCC(c2cn(C3CCCCC3)c3ccccc23)C2CCCCC2)CC1 (stereo partly drawn) [Compound 378, ((1R,4R)-N1-(3-cyclohexyl-3-(1-cyclohexyl-1H-indol-3-yl)propyl)cyclohexane-1,4-diamine salt] | 22 | – | – | – |
| Cc1cccc(C(CC(=O)NC2CCCCC2)c2cn(CC3CCCCC3)c3ccccc23)c1 (centres unmarked) [Compound 208, N-cyclohexyl-3-(1-(cyclohexylmethyl)-1H-indol-3-yl)-3-(m-tolyl)propanamide] | – | > 512 | > 512 | – |
| Cc1cccc(C(CC(=O)NC2CCNC(=O)C2)c2cn(CC3CCCCC3)c3ccc(Br)cc23)c1 (centres unmarked) [Compound 296, 3-(5-bromo-1-(cyclohexylmethyl)-1H-indol-3-yl)-N-(2-oxopiperidin-4-yl)-3-(m-tolyl)propanamide hydrochloride salt] | – | > 512 | > 512 | – |
| Cc1cccc(C(CC(=O)Nc2ccc(N3CCNCC3)cc2)c2cn(CC3CCCCC3)c3ccccc23)c1.Cl (centres unmarked) [Compound 155, 3-(1-(cyclohexylmethyl)-1H-indol-3-yl)-N-(4-(piperazin-1-yl)phenyl)-3-(m-tolyl)propanamide hydrochloride salt] | – | > 512 | > 512 | – |
| Cl.NC1CCC(NC(=O)Cc2cn(CC3CCCCC3)c3ccc(-c4cccc(OC(F)(F)F)c4)cc23)CC1 [Compound 240, N-((1S,4S)-4-aminocyclohexyl)-2-(1-(cyclohexylmethyl)-5-(3-(trifluoromethoxy)phenyl)-1H-indol-3-yl)acetamide hydrochloride salt] | – | 289 | 9 | – |
| O=C(CC(c1cscn1)c1cn(Cc2ccccc2)c2ccccc12)NC1CCNCC1 (centres unmarked) [Compound 96, 3-(1-benzyl-1H-indol-3-yl)-N-(piperidin-4-yl)-3-(thiazol-4-yl) propanamide hydrochloride salt] | 911 | – | – | – |

Source: patent US20210246115A1 (Bioimics AB, priority 2017, published 2021)
